Test results: ChEMBL document CHEMBL1126986, “Nonsteroidal inhibitors of human type I steroid 5-alpha-reductase” (J Med Chem, 1993)

Target: T1, 3-oxo-5-alpha-steroid 4-dehydrogenase 2 (Homo sapiens, UniProt P31213)
T1 sequence (P31213 whole entry): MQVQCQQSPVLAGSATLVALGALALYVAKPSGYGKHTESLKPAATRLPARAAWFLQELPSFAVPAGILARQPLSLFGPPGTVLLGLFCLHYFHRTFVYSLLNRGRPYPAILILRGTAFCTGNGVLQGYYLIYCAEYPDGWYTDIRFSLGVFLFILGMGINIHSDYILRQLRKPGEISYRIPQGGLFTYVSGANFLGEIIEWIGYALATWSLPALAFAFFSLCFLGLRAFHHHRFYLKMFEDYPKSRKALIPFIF
Assay: Compound was tested for inhibition of Type II 5-alpha-reductase in Human Prostate Homogenates (HPH)

IC50	Structure (SMILES)
> 10000 nM	CN1C(=O)CC[C@@H]2c3ccc(Cl)cc3CC[C@H]21 [BEXLOSTERIDE]
8 nM	CC(C)(C)NC(=O)[C@H]1CC[C@H]2[C@@H]3CC=C4C=C(C(=O)O)CC[C@]4(C)[C@H]3CC[C@]12C [EPRISTERIDE]

Target: T2, 3-oxo-5-alpha-steroid 4-dehydrogenase 1 (Homo sapiens, UniProt P18405)
T2 sequence (P18405 whole entry): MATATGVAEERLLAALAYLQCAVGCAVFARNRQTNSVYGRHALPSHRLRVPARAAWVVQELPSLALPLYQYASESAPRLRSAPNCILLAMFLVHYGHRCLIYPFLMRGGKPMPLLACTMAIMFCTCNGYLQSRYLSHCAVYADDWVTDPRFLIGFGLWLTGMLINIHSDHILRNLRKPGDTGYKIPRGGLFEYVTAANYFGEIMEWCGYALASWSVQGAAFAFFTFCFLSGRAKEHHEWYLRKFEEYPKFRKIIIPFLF
Assay: Compound was tested for inhibition of Type I 5-alpha-reductase in Human genital skin (Hs68) foreskin fibroblast cells.
Format: cell-based

IC50	Structure (SMILES)
62 nM	CC(C)(C)NC(=O)[C@H]1CC[C@H]2[C@@H]3CC[C@H]4NC(=O)C=C[C@]4(C)[C@H]3CC[C@]12C [FINASTERIDE]

Target: T2, 3-oxo-5-alpha-steroid 4-dehydrogenase 1
Assay: In vitro inhibition of DHT production in Hs 68 (human genital fibroblast) cells.

IC50	Structure (SMILES)
320 nM	CN1C(=O)CC[C@@H]2c3ccc(F)cc3CC[C@@H]21
2300 nM	O=C1CCC2=C(CCc3ccc(F)cc32)N1
600 nM	O=C1CCC2=C(CCc3cc(F)ccc32)N1
11 nM	Cc1ccc2c(c1)CC[C@@H]1[C@@H]2CCC(=O)N1C
60 nM	O=C1CC[C@@H]2c3ccc(Cl)cc3CC[C@H]2N1
3600 nM	CC12CCC(=O)NC1=CCc1cc(Cl)ccc12 (stereo not drawn)
120 nM	CN1C(=O)CCC2(C)C1=CCc1cc(Cl)ccc12 (stereo not drawn)
30 nM	CN1C(=O)CCC2=C1CCc1cc(Cl)ccc12
6500 nM	O=C1CCC2=C(CCc3ccccc32)N1
460 nM	O=C1CCC2=C(CCc3cc(Cl)ccc32)N1
41 nM	CN1C(=O)CC[C@@H]2c3ccc(Cl)cc3CC[C@@H]21
17 nM	CN1C(=O)CC[C@]2(C)c3ccc(Cl)cc3CC[C@@H]12
120 nM	COc1ccc2c(c1)CC[C@@H]1[C@@H]2CCC(=O)N1C
10000 nM	O=C1CCC2=C(CCc3cccc(F)c32)N1
1800 nM	C[C@]12CCC(=O)N[C@@H]1CCc1cc(Cl)ccc12
35 nM	CN1C(=O)CC[C@@H]2c3ccc(F)cc3CC[C@H]21
3200 nM	O=C1CCC2=C(CCc3c(F)cccc32)N1
560 nM	CN1C(=O)CC[C@@H]2c3ccccc3CC[C@H]21
8 nM	CN1C(=O)CC[C@@H]2c3ccc(Cl)cc3CC[C@H]21 [BEXLOSTERIDE]
7500 nM	CC(C)(C)NC(=O)[C@H]1CC[C@H]2[C@@H]3CC=C4C=C(C(=O)O)CC[C@]4(C)[C@H]3CC[C@]12C [EPRISTERIDE]
